# Measurements: patent US5760092A, “Allocolchinones and uses thereof” (Brandeis University, priority 1996, dated 1998)
# “And” between values parts separate entries of the source, which are not always exact repeats. Identical values can stand only once. “Also recorded” adds a separate entry of the source. Like-named read-outs stand apart in the source and are kept apart here.
# How the values were obtained:
# SF-295 CNS cancer cells [1] = test system: SF-295 CNS cancer cells
# tumor cell lines = test: cells; assay type: cell-based
# [2] = test system: HS 578T breast cancer cells
# [3] = test system: HS 578T breast cancer cells; test: cells; conditions: Homo sapiens
# [4] = test system: OVCAR-8 ovarian cancer cells
# A498 renal cancer cells [5] = test system: A498 renal cancer cells
# A498 renal cancer cells [6] = test: cells; conditions: Homo sapiens
# [7] = test system: HOP-92 non-small cell lung cancer cells
# [8] = test system: SK-OV-3 ovarian cancer cells; test: cells; conditions: Homo sapiens
# [9] = test system: HOP-92 non-small cell lung cancer cells; test: cells; conditions: Homo sapiens
# [10] = test system: RXF-393 renal cancer cells; test: cells; conditions: Homo sapiens; for GI50: RXF 393; for activity at 10 µM: RXF 393, read-out: Percent Growth, log10 conc -5.0; for activity at 1 µM: RXF 393, read-out: Percent Growth, log10 conc -6.0; for activity at 0.1 µM: RXF 393, read-out: Percent Growth, log10 conc -7.0; for activity at 0.01 µM: RXF 393, read-out: Percent Growth, log10 conc -8.0
# SF-295 CNS cancer cells [11] = test: cells; conditions: Homo sapiens
# [12] = test system: CAKI-1 renal cancer cells; test: cells; conditions: Homo sapiens
# [13] = test system: RXF-393 renal cancer cells
# [14] = test system: MCF7/ADR-RES breast cancer cells; test: cells; assay type: cell-based
# tubulin = assay type: biochemical, calf; conditions: in vitro; read-out: LC50 (inhibition of microtubule assembly in vitro)
# [15] = test system: SK-OV-3 ovarian cancer cells
# [16] = test system: OVCAR-3 ovarian cancer cells; test: cells; conditions: Homo sapiens
# [17] = test system: HOP-62 non-small cell lung cancer cells
# [18] = test system: OVCAR-3 ovarian cancer cells
# [19] = test system: HOP-62 non-small cell lung cancer cells; test: cells; conditions: Homo sapiens
smiles,measurement,setting,value
CCCC(=O)NC1CCc2cc(OC)c(OC)c(OC)c2-c2ccc(C(C)=O)cc21 (centres unmarked),TGI,SF-295 CNS cancer cells [1],> 100000 nM
same,Percent Growth,"SF-295 CNS cancer cells [1]; log10 conc -4.0, 100 µM",19%
same,Percent Growth,"SF-295 CNS cancer cells [1]; log10 conc -5.0, 10 µM",12%
same,GI50,tumor cell lines,< 10 nM
same,activity in the NCI screen,tumor cell lines,activity similar to 7-acetamidoallocolchinone; also recorded: active
same,TGI,[2],> 100000 nM
same,Percent Growth,"[2]; log10 conc -5.0, 10 µM",41%
same,Percent Growth,"[2]; log10 conc -6.0, 1 µM",43%
same,Percent Growth,"[2]; log10 conc -7.0, 0.1 µM",31%
same,GI50,[3],< 10 nM
same,CC50,[3]; read-out: LC50,> 100000 nM
same,activity at 100 µM,"[3]; read-out: Percent Growth, log10 conc -4.0",6%
same,activity at 10 µM,"[3]; read-out: Percent Growth, log10 conc -5.0",26%
same,activity at 1 µM,"[3]; read-out: Percent Growth, log10 conc -6.0",26%
same,activity at 0.1 µM,"[3]; read-out: Percent Growth, log10 conc -7.0",22%
same,GI50,[4],< 10 nM
same,TGI,[4],> 10 nM
same,CC50,"[4]; human, ovcar-8 ovarian cancer cells",> 100000 nM
same,GI50,A498 renal cancer cells [5],< 10 nM
same,CC50,"A498 renal cancer cells [5]; human, a498 renal cancer cells",> 100000 nM
same,Percent Growth,"A498 renal cancer cells [5]; log10 conc -6.0, 1 µM",-40%
same,Percent Growth,A498 renal cancer cells [5]; log10 conc -8.0,13%
same,GI50,A498 renal cancer cells [6]; A498,10.4 nM
same,CC50,"A498 renal cancer cells [6]; A498, read-out: LC50",50000 nM
same,GI50,[7],< 10 nM
same,TGI,[7],> 100000 nM
same,GI50,[8]; SK-OV-3,< 10 nM
same,CC50,"[8]; SK-OV-3, read-out: LC50",> 100000 nM
same,GI50,[9]; HOP-92,17.6 nM
same,CC50,"[9]; HOP-92, read-out: LC50",> 100000 nM
same,GI50,SNB-19 CNS cancer cells,< 10 nM
same,CC50,"SNB-19 CNS cancer cells; human, snb-19 cns cancer cells",> 100000 nM
same,Percent Growth,"SNB-19 CNS cancer cells; log10 conc -4.0, 100 µM",19%
same,Percent Growth,"SNB-19 CNS cancer cells; log10 conc -6.0, 1 µM",13% and 26%
same,Percent Growth,"SNB-19 CNS cancer cells; log10 conc -8.0, 0.01 µM",18% and 25%
same,GI50,SF-539 CNS cancer cells,< 10 nM
same,TGI,SF-539 CNS cancer cells,12.9 nM
same,CC50,"SF-539 CNS cancer cells; human, sf-539 cns cancer cells",> 100000 nM
same,Percent Growth,"SF-539 CNS cancer cells; log10 conc -4.0, 100 µM",-8% and 1%
same,Percent Growth,"SF-539 CNS cancer cells; log10 conc -5.0, 10 µM",-13% and -12%
same,Percent Growth,"SF-539 CNS cancer cells; log10 conc -6.0, 1 µM",-8% and -16%
same,Percent Growth,"SF-539 CNS cancer cells; log10 conc -7.0, 0.1 µM",-13% and -11%
same,Percent Growth,SF-539 CNS cancer cells; log10 conc -8.0,2%
same,Percent Growth,"SF-539 CNS cancer cells; log10 conc -8.0, 0.01 µM",-8%
same,GI50,[10],< 10 nM
same,CC50,"[10]; RXF 393, read-out: LC50",> 100000 nM
same,activity at 10 µM,[10],30%
same,activity at 1 µM,[10],39%
same,activity at 0.1 µM,[10],36%
same,activity at 0.01 µM,[10],18%
same,GI50,SF-295 CNS cancer cells [11]; SF-295,< 10 nM
same,CC50,"SF-295 CNS cancer cells [11]; SF-295, read-out: LC50",> 100000 nM
same,activity at 100 µM,"SF-295 CNS cancer cells [11]; SF-295, read-out: Percent Growth, log10 conc -4.0",21%
same,activity at 10 µM,"SF-295 CNS cancer cells [11]; SF-295, read-out: Percent Growth, log10 conc -5.0",10%
same,GI50,U251 CNS cancer cells,< 10 nM
same,CC50,"U251 CNS cancer cells; human, u251 cns cancer cells",> 100000 nM
same,Percent Growth,U251 CNS cancer cells; log10 conc -5.0,5%
same,Percent Growth,"U251 CNS cancer cells; log10 conc -6.0, 1 µM",16% and 7%
same,Percent Growth,"U251 CNS cancer cells; log10 conc -7.0, 0.1 µM",-16%
same,Percent Growth,"U251 CNS cancer cells; log10 conc -8.0, 0.01 µM",1% and 4%
same,GI50,SNB-75 CNS cancer cells,< 10 nM
same,CC50,"SNB-75 CNS cancer cells; human, snb-75 cns cancer cells",> 100000 nM
same,Percent Growth,"SNB-75 CNS cancer cells; log10 conc -4.0, 100 µM",18%
same,Percent Growth,SNB-75 CNS cancer cells; log10 conc -8.0,-28%
same,GI50,[12]; CAKI-1,< 10 nM
same,CC50,"[12]; CAKI-1, read-out: LC50",> 100000 nM
same,TGI,[13],> 100000 nM
same,Percent Growth,"[13]; log10 conc -5.0, 10 µM",26%
same,Percent Growth,"[13]; log10 conc -6.0, 1 µM",40%
same,Percent Growth,"[13]; log10 conc -8.0, 0.01 µM",29%
same,GI50,SF-268 CNS cancer cells,< 10 nM
same,CC50,"SF-268 CNS cancer cells; human, sf-268 cns cancer cells",> 100000 nM
same,Percent Growth,"SF-268 CNS cancer cells; log10 conc -5.0, 10 µM",14% and 25%
same,Percent Growth,"SF-268 CNS cancer cells; log10 conc -6.0, 1 µM",18% and 30%
same,Percent Growth,"SF-268 CNS cancer cells; log10 conc -7.0, 0.1 µM",29% and 31%
same,Percent Growth,"SF-268 CNS cancer cells; log10 conc -8.0, 0.01 µM",43% and 32%
same,GI50,"[14]; Homo sapiens, MCF7",< 10 nM
same,Percent Growth,"[14]; log10 conc -4.0, 100 µM",-22% and -23%
same,IC50,tubulin,600 nM
same,Percent Growth,[15]; log10 conc -5.0,-19%
same,Percent Growth,"[15]; log10 conc -7.0, 0.1 µM",3%
same,GI50,[16]; OVCAR-3,< 10 nM
same,CC50,"[16]; OVCAR-3, read-out: LC50",> 100000 nM
same,TGI,[17],> 100000 nM
same,Percent Growth,"[17]; log10 conc -4.0, 100 µM",34%
same,Percent Growth,"[17]; log10 conc -5.0, 10 µM",44%
same,Percent Growth,"[17]; log10 conc -6.0, 1 µM",34%
same,Percent Growth,"[17]; log10 conc -7.0, 0.1 µM",25% and 46%
same,TGI,[18],< 10 nM
same,Percent Growth,"[18]; log10 conc -4.0, 100 µM",-30%
same,Percent Growth,[18]; log10 conc -5.0,-21%
same,Percent Growth,"[18]; log10 conc -7.0, 0.1 µM",-12%
same,Percent Growth,"[18]; log10 conc -8.0, 0.01 µM",-16% and -19%
same,GI50,MOLT-4 leukemia cells,< 10 nM
same,TGI,MOLT-4 leukemia cells,> 100000 nM
same,CC50,"MOLT-4 leukemia cells; human, molt-4 leukemia cells",> 100000 nM
same,Percent Growth,"MOLT-4 leukemia cells; log10 conc -4.0, 100 µM",2% and 6%
same,Percent Growth,MOLT-4 leukemia cells; log10 conc -5.0,9%
same,Percent Growth,"MOLT-4 leukemia cells; log10 conc -6.0, 1 µM",12% and 8%
same,Percent Growth,"MOLT-4 leukemia cells; log10 conc -7.0, 0.1 µM",12% and 8%
same,Percent Growth,"MOLT-4 leukemia cells; log10 conc -8.0, 0.01 µM",16% and 9%
same,GI50,[19]; HOP-62,< 10 nM
same,CC50,"[19]; HOP-62, read-out: LC50",> 100000 nM
same,activity at 100 µM,"[19]; HOP-62, read-out: Percent Growth, log10 conc -4.0",43%
same,activity at 10 µM,"[19]; HOP-62, read-out: Percent Growth, log10 conc -5.0",41%
same,activity at 1 µM,"[19]; HOP-62, read-out: Percent Growth, log10 conc -6.0",36%
COc1cc2c(c(OC)c1OC)-c1ccc(C(C)=O)cc1C(N)CC2 (centres unmarked) [7-Amino-allocolchinone],IC50,tubulin,3000 nM
"COc1cc2c(c(OC)c1OC)-c1ccc(OC)c(=O)cc1[C@@H](NC(C)=O)CC2 [Colchicine, reference compound]",Percent Growth,"[4]; log10 conc -4.0, 100 µM",-39%
same,Percent Growth,[4]; log10 conc -8.0,99%
same,GI50,[10],< 10 nM
same,activity at 10 µM,[10],13%
same,activity at 1 µM,[10],9%
same,activity at 0.1 µM,[10],7%
same,activity at 0.01 µM,[10],48%
same,GI50,MOLT-4 leukemia cells,35.6 nM
same,Percent Growth,"MOLT-4 leukemia cells; log10 conc -4.0, 100 µM",1%
same,Percent Growth,MOLT-4 leukemia cells; log10 conc -5.0,0%
same,Percent Growth,"MOLT-4 leukemia cells; log10 conc -6.0, 1 µM",1%
same,Percent Growth,MOLT-4 leukemia cells; log10 conc -8.0,98%
